Laboratory results taken from PubChem BioAssay AID1963960 (Molecular Pharmacology Branch, DTP, NCI, 2024).

Test system: MDA-MB-468 spheroids with HUVEC/MSC, viability
Assay: Anticancer human tumor MDA-MB-468 cell line growth inhibition [PI3K];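 further: spheroids exposed to agents for seven days before readout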;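 on viability, T/C: 100% = DMSO vehicle control viability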
Conditions: for IC50: curve of first compound; for viability, T/C: stronger effect = lower value
From the text: Combinatorial screen of targeted agents with the PI3K inhibitors inavolisib, alpelisib, duvelisib, and copanlisib in multi-cell type tumor spheroids
A high-throughput screen of multi-cell type tumor spheroids was designed to identify active combinations of targeted small molecules and PI3K pathway inhibitors. Complex spheroids include a stromal component modeled by human endothelial cells (HUVEC) and fibroblasts modeled by human mesenchymal stem cells (MSCs). The concentration ranges selected for each drug and investigational agent were based upon clinically achievable concentrations if the clinical Cmax of the agent was known.
Compounds. The drugs and investigational agents: inavolisib (NSC800729), alpelisib (NSC765974), duvelisib (NSC772469), copanlisib (NSC816437), ipatasertib (NSC767898), afuresertib (NSC778305), talazoparib (NSC767125), sapanisertib (NSC764658), selumetinib (NSC741078), tovorafenib (DAY101, NSC766906), vemurafenib (NSC761431), ravoxertinib (NSC781343), sotorasib (NSC818433), MRTX1133 (NSC 836407), abemaciclib (NSC 768073), palbociclib (NSC758247), venetoclax (NSC 766270), SY5609 (NSC837396), enzalutamide (NSC755605), and darolutamide (NSC825331), were obtained from the National Cancer Institute (NCI) Developmental Therapeutics Program Chemical Repository. The FDA-approved anticancer drug set is available from the NCI Developmental Therapeutics Program. […] The stock solutions were prepared in dimethyl sulfoxide (DMSO, Sigma-Aldrich, St. Louis, MO, cat. D2650) at 800-fold the tested concentration and stored at -70 degrees C prior to their use. All drugs and investigational agents were tested over a range starting from a high concentration at or near the clinical Cmax and decreasing in half-log increments. If the clinical Cmax for an agent had not been determined, the highest concentration tested was 10 microM.
Cell Culture. All cells were maintained in an incubator at 37 degrees C and 5% CO2 with 95% humidity. The PDC lines were cultured according to standard operating procedures established by the NCI PDMR (https://pdmr.cancer.gov/sops/default.htm). All PDCs were thawed and cultured in Matrigel-coated flasks prepared with a working solution of 1X Ham's F-12 nutrient mix, without supplementation (Invitrogen, Waltham, MA, cat. 11765054), 100 U/mL penicillin-streptomycin (Invitrogen, cat. 15140122), and 2.5% Matrigel (Corning Inc., Corning, NY, cat. 354248) for the first three passages. The 354836-022-R-J1-PDC, 475296-252-R-J1-PDC, and 997726-040-R-J2-PDC lines were cultured in 6A media, which includes advanced DMEM/F-12 (Thermo Fisher Scientific, cat. 12634028), 10 mM HEPES (Thermo Fisher Scientific, cat. 15630080), 1X GlutaMAX supplement (Thermo Fisher Scientific, cat. 35050061), 0.1 mg/mL primocin (InvivoGen, San Diego, CA, cat. ant-pm-2), 10% defined fetal bovine serum, heat inactivated (HyClone Laboratories Inc., Logan, UT, cat. SH30070.03HI), 50% L-WRN conditioned media (ATCC, cat. CRL-3276), 1.25 mM N-Acetyl-L-cysteine (Sigma-Aldrich, cat. A9165), 10 mM nicotinamide (Sigma-Aldrich, cat. N0636), 1X B-27 supplement (Thermo Fisher Scientific, cat. 17504044), 1X N-2 supplement (Thermo Fisher Scientific, cat. 17502048), and 10 microM Y-27632 dihydrochloride (Tocris Bioscience, Bristol, United Kingdom, cat. 1254). The 624824-186-R-J2-PDC line was cultured in 6C/Colon 1B media, which includes all 6A media components plus 50 ng/mL human EGF recombinant protein (Thermo Fisher Scientific, cat. PHG0311). […]

[1] = second compound 0.00316 µM, first compound 0.0316 µM
[2] = second compound 0.00316 µM, first compound 0.1 µM
[3] = second compound 0.01 µM, first compound 0.0316 µM
[4] = second compound 0.01 µM, first compound 0.1 µM
[5] = second compound 0.0316 µM, first compound 0.0316 µM
[6] = second compound 0.0316 µM, first compound 0.1 µM
[7] = second compound 0.1 µM, first compound 0.0316 µM
[8] = second compound 0.1 µM, first compound 0.1 µM
[9] = second compound 0.316 µM, first compound 0.0316 µM
[10] = second compound 0.316 µM, first compound 0.1 µM
[11] = second compound 1 µM, first compound 0.0316 µM
[12] = second compound 1 µM, first compound 0.1 µM

C[C@@H](NC(=O)c1ncnc(N)c1Cl)c1ncc(C(=O)Nc2cc(C(F)(F)F)c(Cl)cn2)s1 + CC(Nc1ccc2c(c1)OCCn1cc(N3C(=O)OCC3C(F)F)nc1-2)C(N)=O
IC50 (second compound 0.00316 µM): > 10000 nM
IC50 (second compound 0.01 µM): > 10000 nM
IC50 (second compound 0.0316 µM): > 10000 nM
IC50 (second compound 0.1 µM): > 10000 nM
IC50 (second compound 0.316 µM): > 10000 nM
IC50 (second compound 1 µM): > 10000 nM
viability, T/C [1]: 91.6%
viability, T/C [2]: 102%
viability, T/C (second compound 0.00316 µM, first compound 0.316 µM): 93.7%
viability, T/C (second compound 0.00316 µM, first compound 1 µM): 102%
viability, T/C (second compound 0.00316 µM, first compound 3.16 µM): 104%
viability, T/C (second compound 0.00316 µM, first compound 10 µM): 108%
viability, T/C [3]: 104%
viability, T/C [4]: 105%
viability, T/C (second compound 0.01 µM, first compound 0.316 µM): 105%
viability, T/C (second compound 0.01 µM, first compound 1 µM): 107%
viability, T/C (second compound 0.01 µM, first compound 3.16 µM): 93.3%
viability, T/C (second compound 0.01 µM, first compound 10 µM): 81%
viability, T/C [5]: 104%
viability, T/C [6]: 92.2%
viability, T/C (second compound 0.0316 µM, first compound 0.316 µM): 102%
viability, T/C (second compound 0.0316 µM, first compound 1 µM): 97.3%
viability, T/C (second compound 0.0316 µM, first compound 3.16 µM): 93.3%
viability, T/C (second compound 0.0316 µM, first compound 10 µM): 81.4%
viability, T/C [7]: 98.7%
viability, T/C [8]: 85.2%
viability, T/C (second compound 0.1 µM, first compound 0.316 µM): 93.2%
viability, T/C (second compound 0.1 µM, first compound 1 µM): 101%
viability, T/C (second compound 0.1 µM, first compound 3.16 µM): 101%
viability, T/C (second compound 0.1 µM, first compound 10 µM): 86.2%
viability, T/C [9]: 83.3%
viability, T/C [10]: 83.7%
viability, T/C (second compound 0.316 µM, first compound 0.316 µM): 94.7%
viability, T/C (second compound 0.316 µM, first compound 1 µM): 99.7%
viability, T/C (second compound 0.316 µM, first compound 3.16 µM): 108%
viability, T/C (second compound 0.316 µM, first compound 10 µM): 68.2%
viability, T/C [11]: 97.3%
viability, T/C [12]: 89.5%
viability, T/C (second compound 1 µM, first compound 0.316 µM): 89.6%
viability, T/C (second compound 1 µM, first compound 1 µM): 99.5%
viability, T/C (second compound 1 µM, first compound 3.16 µM): 91%
viability, T/C (second compound 1 µM, first compound 10 µM): 74.1%

Cn1ncnc1[C@H]1c2n[nH]c(=O)c3cc(F)cc(c23)N[C@@H]1c1ccc(F)cc1 + CC(Nc1ccc2c(c1)OCCn1cc(N3C(=O)OCC3C(F)F)nc1-2)C(N)=O
IC50 (second compound 0.00316 µM): > 100 nM
IC50 (second compound 0.01 µM): > 100 nM
IC50 (second compound 0.0316 µM): > 100 nM
IC50 (second compound 0.1 µM): 86.2 nM
IC50 (second compound 0.316 µM): 42.4 nM
IC50 (second compound 1 µM): 51.6 nM
viability, T/C (second compound 0.00316 µM, first compound 0.000316 µM): 93.1%
viability, T/C (second compound 0.00316 µM, first compound 0.001 µM): 87.6%
viability, T/C (second compound 0.00316 µM, first compound 0.00316 µM): 87.3%
viability, T/C (second compound 0.00316 µM, first compound 0.01 µM): 96.8%
viability, T/C [1]: 72.2%
viability, T/C [2]: 55.4%
viability, T/C (second compound 0.01 µM, first compound 0.000316 µM): 90%
viability, T/C (second compound 0.01 µM, first compound 0.001 µM): 99.3%
viability, T/C (second compound 0.01 µM, first compound 0.00316 µM): 81%
viability, T/C (second compound 0.01 µM, first compound 0.01 µM): 85.6%
viability, T/C [3]: 76.3%
viability, T/C [4]: 56.5%
viability, T/C (second compound 0.0316 µM, first compound 0.000316 µM): 107%
viability, T/C (second compound 0.0316 µM, first compound 0.001 µM): 88.9%
viability, T/C (second compound 0.0316 µM, first compound 0.00316 µM): 83%
viability, T/C (second compound 0.0316 µM, first compound 0.01 µM): 83.5%
viability, T/C [5]: 74.5%
viability, T/C [6]: 47.3%
viability, T/C (second compound 0.1 µM, first compound 0.000316 µM): 99.5%
viability, T/C (second compound 0.1 µM, first compound 0.001 µM): 77.4%
viability, T/C (second compound 0.1 µM, first compound 0.00316 µM): 72.4%
viability, T/C (second compound 0.1 µM, first compound 0.01 µM): 80.2%
viability, T/C [7]: 75.6%
viability, T/C [8]: 45.5%
viability, T/C (second compound 0.316 µM, first compound 0.000316 µM): 93.4%
viability, T/C (second compound 0.316 µM, first compound 0.001 µM): 73.6%
viability, T/C (second compound 0.316 µM, first compound 0.00316 µM): 73.9%
viability, T/C (second compound 0.316 µM, first compound 0.01 µM): 67.5%
viability, T/C [9]: 52.4%
viability, T/C [10]: 40.6%
viability, T/C (second compound 1 µM, first compound 0.000316 µM): 73.7%
viability, T/C (second compound 1 µM, first compound 0.001 µM): 73.4%
viability, T/C (second compound 1 µM, first compound 0.00316 µM): 68.7%
viability, T/C (second compound 1 µM, first compound 0.01 µM): 67%
viability, T/C [11]: 56%
viability, T/C [12]: 41.3%
